Biological target: T1, human oxytocin receptor (Homo sapiens, UniProt P30559)
T1 construct: host or cells: CHO cells (pcDNA3.1 vector)
T1 sequence (P30559 1-389): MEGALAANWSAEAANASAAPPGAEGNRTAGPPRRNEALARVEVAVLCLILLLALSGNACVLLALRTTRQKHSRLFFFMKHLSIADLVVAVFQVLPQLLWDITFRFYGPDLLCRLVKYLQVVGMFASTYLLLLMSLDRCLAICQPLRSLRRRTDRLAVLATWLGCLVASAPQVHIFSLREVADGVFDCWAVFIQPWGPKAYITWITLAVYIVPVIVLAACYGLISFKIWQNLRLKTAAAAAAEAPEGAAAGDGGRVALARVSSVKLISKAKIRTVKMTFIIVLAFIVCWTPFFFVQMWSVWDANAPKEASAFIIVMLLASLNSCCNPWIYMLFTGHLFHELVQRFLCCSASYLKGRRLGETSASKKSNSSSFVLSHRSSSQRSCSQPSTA
Test: Oxytocin binding in Chinese Hamster Ovary cell membranes expressing human oxytocin receptors
Details: 100 nM, CHO cell membranes, [3H]oxytocin, values without parentheses, read-out: OT % inhibition @ 100% nM

SMILES	inhibition at 0.1 µM [%]
COc1ccccc1-c1ccc(C(=O)N2Cc3ccc(C(=O)N[C@@H](Cc4c[nH]cn4)C(N)=O)n3Cc3ccccc32)cc1 [Example 285, N-[(1S)-2-Amino-1-(1H-imidazol-4-ylmethyl)-2-oxoethyl]-10-[(2′-methoxy[1,1′-biphenyl]-4-yl)carbonyl]-10,11-dihydro-5H-pyrrolo[2,1-c][1,4]benzodiazepine-3-carboxamide]	93
COc1ccccc1-c1ccc(C(=O)N2Cc3ccc(C(=O)n4ccnc4)n3Cc3ccccc32)cc1OC [Example 293, {10-[(2,2′-Dimethoxy[1,1′-biphenyl]-4-yl)carbonyl]-10,11-dihydro-5H-pyrrolo[2,1-c][1,4]benzodiazepin-3-yl}(1H-imidazol-1-yl)methanone]	53
COc1cc(C(=O)N2Cc3ccc(C(=O)N(C)CCN(C)C)n3Cc3ccccc32)ccc1-n1c(C)ccc1C [Example 309, N-[2-(Dimethylamino)ethyl]-10-[4-(2,5-dimethyl-1H-pyrrol-1-yl)-3-methoxybenzoyl]-N-methyl-10,11-dihydro-5H-pyrrolo[2,1-c][1,4]benzodiazepine-3-carboxamide]	72
COc1cccc(-c2ccc(C(=O)N3Cc4ccc(C(=O)NCCCN(C)C)n4Cc4ccccc43)cc2C)c1 [Example 74, N-[3-(Dimethylamino)propyl]-10-[(3′-methoxy-2-methyl[1,1′-biphenyl]-4-yl)carbonyl]-10,11-dihydro-5H-pyrrolo[2,1-c][1,4]benzodiazepine-3-carboxamide]	45
COc1ccccc1-c1ccc(C(=O)N2Cc3ccc(C(=O)N4CCN(CCCN(C)C)CC4)n3Cc3ccccc32)cc1OC [Example 254, {10-[(2,2′-Dimethoxy[1,1′-biphenyl]-4-yl)carbonyl]-10,11-dihydro-5H-pyrrolo[2,1-c][1,4]benzodiazepin-3-yl}{4-[3-(dimethylamino)propyl]-1-piperazinyl}methanone]	66
CN(C)CCCN1CCN(C(=O)c2ccc3n2Cc2ccccc2N(C(=O)c2ccc(-c4cccc5ccccc45)cc2Cl)C3)CC1 [Example 256, {10-[2-Chloro-4-(1-naphthyl)benzoyl]-10,11-dihydro-5H-pyrrolo[2,1-c][1,4]benzodiazepin-3-yl}{4-[3-(dimethylamino)propyl]-1-piperazinyl}methanone]	33
Cc1ccccc1-c1ccc(C(=O)N2Cc3ccc(C(=O)N4CCCN(C)CC4)n3Cc3ccccc32)cc1 [Example 65, {10-[(2′-Methyl[1,1′-biphenyl]-4-yl)carbonyl]-10,11-dihydro-5H-pyrrolo[2,1-c][1,4]benzodiazepin-3-yl}(4-methyl-1,4-diazepan-1-yl)methanone]	68
CN1CCN(C(=O)c2ccc3n2Cc2ccccc2N(C(=O)c2ccc(-c4cccc5ccccc45)cc2Cl)C3)CC1 [Example 58, {10-[2-Chloro-4-(1-naphthyl)benzoyl]-10,11-dihydro-5H-pyrrolo[2,1-c][1,4]benzodiazepin-3-yl}(4-methyl-1-piperazinyl)methanone]	24
COc1cccc(-c2cc(OC)c(C(=O)N3Cc4ccc(C(=O)N5CCCN(C)CC5)n4Cc4ccccc43)cc2Cl)c1 [Example 67, {10-[(6-Chloro-3,3′-dimethoxy[1,1′-biphenyl]-4-yl)carbonyl]-10,11-dihydro-5H-pyrrolo[2,1-c][1,4]benzodiazepin-3-yl}(4-methyl-1,4-diazepan-1-yl)methanone]	79
COc1ccccc1-c1ccc(C(=O)N2Cc3ccc(C(=O)N[C@@H](CCCCNC(=O)OC(C)(C)C)C(N)=O)n3Cc3ccccc32)cc1OC [Example 303, tert-Butyl (5S)-6-amino-5-[({10-[(2,2′-dimethoxy[1,1′-biphenyl]-4-yl)carbonyl]-10,11-dihydro-5H-pyrrolo[2,1-c][1,4]benzodiazepin-3-yl}carbonyl)amino]-6-oxohexylcarbamate]	66
COc1ccccc1-c1ccc(C(=O)N2Cc3ccc(C(=O)NCCCN(C)C)n3Cc3ccccc32)cc1C [Example 72, N-[3-(Dimethylamino)propyl]-10-[(2′-methoxy-2-methyl[1,1′-biphenyl]-4-yl)carbonyl]-10,11-dihydro-5H-pyrrolo[2,1-c][1,4]benzodiazepine-3-carboxamide]	74
COc1cc(C(=O)N2Cc3ccc(C(=O)N4CCN(C(C)C)CC4)n3Cc3ccccc32)ccc1-n1c(C)ccc1C [Example 319, {10-[4-(2,5-Dimethyl-1H-pyrrol-1-yl)-3-methoxybenzoyl]-10,11-dihydro-5H-pyrrolo[2,1-c][1,4]benzodiazepin-3-yl}(4-isopropyl-1-piperazinyl)methanone]	22
COc1ccccc1-c1ccc(C(=O)N2Cc3ccc(C(=O)N4CCCN(C)CC4)n3Cc3ccccc32)cc1OC [Example 69, {10-[(2,2′-Dimethoxy[1,1′-biphenyl]-4-yl)carbonyl]-10,11-dihydro-5H-pyrrolo[2,1-c][1,4]benzodiazepin-3-yl}(4-methyl-1,4-diazepan-1-yl)methanone]	71
COc1cc(-c2ccccc2C)c(Cl)cc1C(=O)N1Cc2ccc(C(=O)N3CCN(CCCN(C)C)CC3)n2Cc2ccccc21 [Example 251, {10-[(6-Chloro-3-methoxy-2′-methyl[1,1′-biphenyl]-4-yl)carbonyl]-10,11-dihydro-5H-pyrrolo[2,1-c][1,4]benzodiazepin-3-yl}{4-[3-(dimethylamino)propyl]-1-piperazinyl}methanone]	87
COc1cc(C(=O)N2Cc3ccc(C(=O)N4CCN(CCCN(C)C)CC4)n3Cc3ccccc32)ccc1-c1ccccc1C [Example 250, {4-[3-(Dimethylamino)propyl]-1-piperazinyl}{10-[(2-methoxy-2′-methyl[1,1′-biphenyl]-4-yl)carbonyl]-10,11-dihydro-5H-pyrrolo[2,1-c][1,4]benzodiazepin-3-yl}methanone]	87
COc1cc(C(=O)N2Cc3ccc(C(=O)N4CCN(CCN5CCOCC5)CC4)n3Cc3ccccc32)ccc1-n1c(C)ccc1C [Example 317, {10-[4-(2,5-Dimethyl-1H-pyrrol-1-yl)-3-methoxybenzoyl]-10,11-dihydro-5H-pyrrolo[2,1-c][1,4]benzodiazepin-3-yl}{4-[2-(4-morpholinyl)ethyl]-1-piperazinyl}methanone]	32
Cc1ccccc1-c1ccc(C(=O)N2Cc3ccc(C(=O)N4CCN(CCCN(C)C)CC4)n3Cc3ccccc32)cc1 [Example 249, {4-[3-(Dimethylamino)propyl]-1-piperazinyl}{10-[(2′-methyl[1,1′-biphenyl]-4-yl)carbonyl]-10,11-dihydro-5H-pyrrolo[2,1-c][1,4]benzodiazepin-3-yl}methanone]	18
Cc1cc(C(=O)N2Cc3cccn3Cc3ncccc32)ccc1-c1ccccc1C(F)(F)F [Example 323F, (2-Methyl-2′-trifluoromethyl-[1,1′-biphenyl]-4-yl)-(4H,10H-3a,5,9-triaza-benzo[f]azulen-9-yl)-methanone]	33
COc1cc(C(=O)N2Cc3ccc(C(=O)NCCN4CCCCC4)n3Cc3ccccc32)ccc1-n1c(C)ccc1C [Example 314, 10-[4-(2,5-Dimethyl-1H-pyrrol-1-yl)-3-methoxybenzoyl]-N-[2-(1-piperidinyl)ethyl]-10,11-dihydro-5H-pyrrolo[2,1-c][1,4]benzodiazepine-3-carboxamide]	19
